Here are results for five compounds from publication PMC9860125 (The Journal of Biological Chemistry, 2022).

The target of data set [1] is T1, EmrE (Escherichia coli, UniProt P23895). Description: SSME transport with purified EmrE in proteoliposomes, empty liposome control. It counts as biochemical. Details: WT-EmrE in POPC proteoliposomes.
In data set [2] the target is T1, EmrE. As to the kind of experiment: ITC (pH […] ºC); NMR pH titration; ZZ-exchange NMR. It counts as binding. Details: WT EmrE, antiparallel homodimer, in DMPC/DHPC isotropic bicelles.
A further data set concerns the target Glu14 (UniProt position 14, GAILAEVIGTT). Description: NMR. The settings on record: 45 °C; not stated (no added salt beyond the buffer components); 20 mM sodium acetate, 50 mM Mes, 50 mM Mops, 100 mM bicine, 2 mM TCEP, 0.01% sodium azide; Saturated with 2H-dTPP2+ (at least 4x the EmrE monomer concentration). Alternating access is in slow exchange, and the substrate is associated asymmetrically with subunit A.

T1 sequence (P23895 whole entry): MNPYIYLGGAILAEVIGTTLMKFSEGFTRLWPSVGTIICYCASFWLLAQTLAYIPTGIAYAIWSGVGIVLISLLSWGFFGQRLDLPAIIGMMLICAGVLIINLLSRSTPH

Consider `CC[n+]1c(-c2ccccc2)c2cc(N)ccc2c2ccc(N)cc21` [Eth+, ethidium], for which the “SSME transport with purified EmrE in proteoliposomes, empty liposome control” value at EmrE [1] was “observed signal under these conditions is transport dependent on the protein as empty controls show minimal signal”.
For `C[n+]1ccc(-c2cc[n+](C)cc2)cc1` [MV2+, methyl viologen], the “SSME transport with purified EmrE in proteoliposomes, empty liposome control” value at EmrE [1] is listed as “Addition of the substrate gradient resulted in increased net flux compared with drug-free conditions, consistent with net symport”.
As a reminder, the Kd is the free concentration of one partner at which half of the binding sites on the other are occupied at equilibrium, for simple one-to-one binding. Read a high Kd as weaker binding. `c1ccc([P+](c2ccccc2)(c2ccccc2)c2ccc([P+](c3ccccc3)(c3ccccc3)c3ccccc3)cc2)cc1` [dTPP2+, 1,4-phenylenebis(triphenylphosphonium) bromide] gave a Kd on EmrE [2] of 8.1 ± 0.4 µM.
`c1ccc(C(c2ccccc2)(c2ccccc2)c2ccc([P+](c3ccccc3)(c3ccccc3)c3ccccc3)cc2)cc1` [dTPP+, triphenyl[4-(triphenylmethyl)phenyl]phosphonium iodide] returned a Kd on EmrE [2] of 9.3 ± 0.3 µM.
One may read the pKa as the negative logarithm of the acid dissociation constant. Take “EmrE (small multidrug resistance transporter) (Escherichia coli)”: in the data set with Glu14, the pKa stood at 6.2 ± 0.1.
